Results from the supplement of paper PMC10307832.

Experiments:
Test in all cases: relative viability (nuclei count vs DMSO), 5 days (fraction); higher = more cells survive
NCI-H1734 = tested on: NCI-H1734
How it was run: (§1)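 Each reported value is a median over duplicate plates. It expresses relative viability: treated-well nuclei count divided by vehicle-well nuclei count. Lung cancer cell lines in 1536-well plates were dosed by pin tool a day after seeding, alone with one drug or with a fixed anchor-drug dose plus five library-drug doses (not always all listed) in √10 steps, and nuclei were counted after 5 days.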

201T = tested on: 201T
How it was run: as §1

RERF-LC-KJ = tested on: RERF-LC-KJ
How it was run: as §1

PC-14 = tested on: PC-14
How it was run: as §1

HCC-44 = tested on: HCC-44
How it was run: as §1

NCI-H1993 = tested on: NCI-H1993
How it was run: as §1

NCI-H441 = tested on: NCI-H441
How it was run: as §1

EPLC-272H = tested on: EPLC-272H
How it was run: as §1

NCI-H520 = tested on: NCI-H520
How it was run: as §1

H3255 = tested on: H3255
How it was run: as §1

NCI-H1793 = tested on: NCI-H1793
How it was run: as §1

NCI-H2347 = tested on: NCI-H2347
How it was run: as §1

NCI-H3122 = tested on: NCI-H3122
How it was run: as §1

NCI-H2085 = tested on: NCI-H2085
How it was run: as §1

LOU-NH91 = tested on: LOU-NH91
How it was run: as §1

NCI-H2405 = tested on: NCI-H2405
How it was run: as §1

NCI-H647 = tested on: NCI-H647
How it was run: as §1

NCI-H2023 = tested on: NCI-H2023
How it was run: as §1

COR-L23 = tested on: COR-L23
How it was run: as §1

NCI-H1563 = tested on: NCI-H1563
How it was run: as §1

In the case of `Oc1nc(-c2ccc(C(F)(F)F)cc2)nc2c1CSCC2` [XAV939] + C[C@]1(O)C[C@@H](c2nc(-c3ccc4ccc(-c5ccccc5)nc4c3)c3c(N)nccn32)C1 [Linsitinib] (partner 1 µM), the relative viability (NCI-H1734; first compound 0.08 µM) is reported as 0.841, the relative viability (NCI-H1734; first compound 0.253 µM) is reported as 0.853 and the relative viability (NCI-H1734; first compound 0.8 µM) is reported as 0.961. It also gave a relative viability (NCI-H1734; first compound 2.53 µM) of 0.709, a relative viability (201T; first compound 0.08 µM) of 0.937 and a relative viability (201T; first compound 0.253 µM) of 0.8. The relative viability (201T; first compound 0.8 µM) was 0.857, the relative viability (201T; first compound 2.53 µM) was 0.873 and the relative viability (RERF-LC-KJ; first compound 0.08 µM) was 0.881. The relative viability (RERF-LC-KJ; first compound 0.253 µM) was 0.765, the relative viability (RERF-LC-KJ; first compound 0.8 µM) was 0.789 and the relative viability (RERF-LC-KJ; first compound 2.53 µM) was 0.661. For the same compound, the relative viability (PC-14; first compound 0.08 µM) was 0.954, the relative viability (PC-14; first compound 0.253 µM) was 0.831 and the relative viability (PC-14; first compound 0.8 µM) was 1.04. It also gave a relative viability (PC-14; first compound 2.53 µM) of 0.844, a relative viability (HCC-44; first compound 0.08 µM) of 0.789 and a relative viability (HCC-44; first compound 0.253 µM) of 0.673. The relative viability (HCC-44; first compound 0.8 µM) was 0.659, the relative viability (HCC-44; first compound 2.53 µM) was 0.651 and the relative viability (NCI-H1993; first compound 0.8 µM) was 0.754. For the same compound, the relative viability (NCI-H1993; first compound 2.53 µM) was 0.719, the relative viability (NCI-H441; first compound 0.08 µM) was 0.675 and the relative viability (NCI-H441; first compound 0.253 µM) was 0.413. The relative viability (NCI-H441; first compound 0.8 µM) was 0.507, the relative viability (NCI-H441; first compound 2.53 µM) was 0.507 and the relative viability (EPLC-272H; first compound 0.08 µM) was 1.3. The relative viability (EPLC-272H; first compound 0.253 µM) was 1.08, the relative viability (EPLC-272H; first compound 0.8 µM) was 1.18 and the relative viability (EPLC-272H; first compound 2.53 µM) was 1.09. For the same compound, the relative viability (NCI-H520; first compound 0.08 µM) was 0.983, the relative viability (NCI-H520; first compound 0.253 µM) was 0.974 and the relative viability (NCI-H520; first compound 0.8 µM) was 0.833. It also gave a relative viability (NCI-H520; first compound 2.53 µM) of 0.775, a relative viability (H3255; first compound 0.08 µM) of 0.981 and a relative viability (H3255; first compound 0.253 µM) of 0.843. It also gave a relative viability (H3255; first compound 0.8 µM) of 1.05, a relative viability (H3255; first compound 2.53 µM) of 0.784 and a relative viability (NCI-H1793; first compound 0.08 µM) of 0.964. It also gave a relative viability (NCI-H1793; first compound 0.253 µM) of 0.709, a relative viability (NCI-H1793; first compound 0.8 µM) of 0.774 and a relative viability (NCI-H1793; first compound 2.53 µM) of 0.719. For the same compound, the relative viability (NCI-H2347; first compound 0.08 µM) was 1.08, the relative viability (NCI-H2347; first compound 0.253 µM) was 0.997 and the relative viability (NCI-H2347; first compound 0.8 µM) was 0.931. It also gave a relative viability (NCI-H2347; first compound 2.53 µM) of 1, a relative viability (NCI-H3122; first compound 0.08 µM) of 1.02 and a relative viability (NCI-H3122; first compound 0.253 µM) of 0.986. For the same compound, the relative viability (NCI-H3122; first compound 0.8 µM) was 0.951, the relative viability (NCI-H3122; first compound 2.53 µM) was 0.557 and the relative viability (NCI-H2085; first compound 0.08 µM) was 0.811. The relative viability (NCI-H2085; first compound 0.253 µM) was 0.771, the relative viability (NCI-H2085; first compound 0.8 µM) was 0.91 and the relative viability (NCI-H2085; first compound 2.53 µM) was 0.888. For the same compound, the relative viability (LOU-NH91; first compound 0.08 µM) was 0.903, the relative viability (LOU-NH91; first compound 0.253 µM) was 0.842 and the relative viability (LOU-NH91; first compound 0.8 µM) was 0.996. It also gave a relative viability (LOU-NH91; first compound 2.53 µM) of 0.911, a relative viability (NCI-H2405; first compound 0.08 µM) of 1.01 and a relative viability (NCI-H2405; first compound 0.253 µM) of 0.863. It also gave a relative viability (NCI-H2405; first compound 0.8 µM) of 0.96, a relative viability (NCI-H2405; first compound 2.53 µM) of 0.801 and a relative viability (NCI-H647; first compound 0.08 µM) of 1.13. The relative viability (NCI-H647; first compound 0.253 µM) was 0.864, the relative viability (NCI-H647; first compound 0.8 µM) was 1.06 and the relative viability (NCI-H647; first compound 2.53 µM) was 1.02. It also gave a relative viability (NCI-H2023; first compound 0.08 µM) of 0.699, a relative viability (NCI-H2023; first compound 0.253 µM) of 0.626 and a relative viability (NCI-H2023; first compound 0.8 µM) of 0.625. It also gave a relative viability (NCI-H2023; first compound 2.53 µM) of 0.447, a relative viability (COR-L23; first compound 0.08 µM) of 0.962 and a relative viability (COR-L23; first compound 0.253 µM) of 0.785. The relative viability (COR-L23; first compound 0.8 µM) was 0.969, the relative viability (COR-L23; first compound 2.53 µM) was 0.809 and the relative viability (NCI-H1563; first compound 0.08 µM) was 1.2. It also gave a relative viability (NCI-H1563; first compound 0.253 µM) of 1.01, a relative viability (NCI-H1563; first compound 0.8 µM) of 1.07 and a relative viability (NCI-H1563; first compound 2.53 µM) of 0.871.
